In BindingDB's records for doi:10.7270/Q2Q52N1X (Vanderbilt Screening Center for GPCRs, Ion Channels and …, 2009) one finds EC50 data, which are given here for 31 compounds.

Non-standard residues stand in square brackets, D forms with d. Residues, ends and D or L forms follow the SMILES beside them. ξ: configuration not given here. *: point of attachment. ξF = NC(Cc1ccccc1)C(=O)O; Cbz = O=C(OCc1ccccc1)*

What is called EC50 is the concentration giving half of the maximal effect.

One assay deals with T1, Solute carrier family 12 member 5 (Homo sapiens, UniProt Q9H2X9).
T1 sequence (Q9H2X9 whole entry): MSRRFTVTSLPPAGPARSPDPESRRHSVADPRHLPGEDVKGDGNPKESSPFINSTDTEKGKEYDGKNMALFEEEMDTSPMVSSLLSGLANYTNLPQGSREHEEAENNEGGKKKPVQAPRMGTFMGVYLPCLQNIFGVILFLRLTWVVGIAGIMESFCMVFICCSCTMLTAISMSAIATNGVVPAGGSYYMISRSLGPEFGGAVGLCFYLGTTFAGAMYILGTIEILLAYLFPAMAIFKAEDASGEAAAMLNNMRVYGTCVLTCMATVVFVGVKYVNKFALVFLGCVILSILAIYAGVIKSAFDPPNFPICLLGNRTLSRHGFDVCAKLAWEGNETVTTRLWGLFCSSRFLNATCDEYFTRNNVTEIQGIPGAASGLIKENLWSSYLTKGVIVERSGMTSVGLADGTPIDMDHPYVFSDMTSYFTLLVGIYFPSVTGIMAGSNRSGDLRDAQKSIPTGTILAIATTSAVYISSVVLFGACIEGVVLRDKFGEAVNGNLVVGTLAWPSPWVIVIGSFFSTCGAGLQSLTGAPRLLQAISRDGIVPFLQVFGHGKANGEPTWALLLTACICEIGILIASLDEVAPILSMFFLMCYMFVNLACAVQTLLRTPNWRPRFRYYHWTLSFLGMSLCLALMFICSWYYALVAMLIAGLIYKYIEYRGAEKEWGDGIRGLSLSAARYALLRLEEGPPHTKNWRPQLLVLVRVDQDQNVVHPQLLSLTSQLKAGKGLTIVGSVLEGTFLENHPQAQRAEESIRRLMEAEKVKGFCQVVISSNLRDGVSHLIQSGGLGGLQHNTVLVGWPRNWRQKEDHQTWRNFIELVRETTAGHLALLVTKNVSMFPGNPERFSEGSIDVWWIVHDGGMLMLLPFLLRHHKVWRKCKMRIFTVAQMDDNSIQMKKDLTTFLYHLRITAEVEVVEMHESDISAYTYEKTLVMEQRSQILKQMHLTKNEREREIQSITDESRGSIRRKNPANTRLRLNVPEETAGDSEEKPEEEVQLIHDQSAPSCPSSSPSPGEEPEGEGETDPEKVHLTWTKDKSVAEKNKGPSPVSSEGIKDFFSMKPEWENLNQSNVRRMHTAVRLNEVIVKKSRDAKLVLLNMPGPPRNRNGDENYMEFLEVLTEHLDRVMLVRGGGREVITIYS
Kind of assay: KCC2 modulator potency by thallium flux, dose response, cell-based, HEK293 KCC2, FluoZin-2 fluorescence (AID 1736).
Details: not given
`CCOC(=O)CNC(=O)C(Cc1ccccc1)NC(=O)OCc1ccccc1` (stereo unspecified) [2-[[1-oxo-3-phenyl-2-(phenylmethoxycarbonylamino)propyl]amino]acetic acid ethyl ester] (Cbz-[ξF]-Gly-OEt): the EC50 stood at 5.03 µM.

The compound `COc1ccc(-n2cnnc2SCC(=O)Nc2cc(S(=O)(=O)N3CCCCC3)ccc2C)cc1` [2-[[4-(4-methoxyphenyl)-1,2,4-triazol-3-yl]sulfanyl]-N-(2-methyl-5-piperidin-1-ylsulfonyl-phenyl)ethanamide] yielded an EC50 of 4.63 µM. Same read-out and setting: the same measure for `Cc1ccc(Cn2c(SCC(=O)Nc3cc(C)on3)nc3ccccc3c2=O)cc1` [2-[[4-keto-3-(4-methylbenzyl)quinazolin-2-yl]thio]-N-(5-methylisoxazol-3-yl)acetamide]: 82 µM; for `Cc1ccc(C(=O)CC=Nc2ccccc2C(N)=O)cc1` [2-[[(E)-3-(4-methylphenyl)-3-oxidanylidene-prop-1-enyl]amino]benzamide]: 7.95 µM; for `COc1ccc(-c2cc(CNC(=O)CN(C)Cc3ccccc3)on2)cc1` [2-[benzyl(methyl)amino]-N-[[3-(4-methoxyphenyl)-1,2-oxazol-5-yl]methyl]acetamide]: 15 µM. Same read-out and setting: then `CC(=O)NC(C)C(=O)OCC(=O)c1ccc(-c2ccccc2)cc1` (stereo unspecified) [2-acetamidopropanoic acid [2-oxo-2-(4-phenylphenyl)ethyl] ester], with 7.92 µM; and `CN(C)S(=O)(=O)c1cccc(NC(=O)c2cc3c(cc2Cl)N2CCCCC=C2NS3(=O)=O)c1` [2-chloranyl-N-[3-(dimethylsulfamoyl)phenyl]-5,5-bis(oxidanylidene)-8,9,10,11-tetrahydro-7H-azepino[2,1-c][1,2,4]benzothiadiazine-3-carboxamide], with 0.0676 µM. Still for that read-out and setting: the same measure for `Cc1ccc(-c2csc(NC(=O)CCNC(=O)c3ccccc3Cl)n2)cc1` [2-chloranyl-N-[3-[[4-(4-methylphenyl)-1,3-thiazol-2-yl]amino]-3-oxidanylidene-propyl]benzamide]: 2.16 µM; for `O=C(NC(=S)Nc1nc(-c2cccc([N+](=O)[O-])c2)cs1)c1ccccc1Cl` [2-chloranyl-N-[[4-(3-nitrophenyl)-1,3-thiazol-2-yl]carbamothioyl]benzamide]: 6.81 µM. Consider `Cc1cc([N+](=O)[O-])ccc1NCc1ccccc1` [2-methyl-4-nitro-N-(phenylmethyl)aniline], for which the EC50 was found to be 31.3 µM. On the same count and under the same terms, the same measure for `O=C(C1CCN(S(=O)(=O)c2cccc3nsnc23)CC1)N1CCc2ccccc2C1` [2-{[1-(2,1,3-benzothiadiazol-4-ylsulfonyl)piperidin-4-yl]carbonyl}-1,2,3,4-tetrahydroisoquinoline]: 34.1 µM; for `Cc1noc(/C=C/c2ccco2)c1S(=O)(=O)N1CCC(C(=O)N2CCc3ccccc3C2)CC1` [2-{[1-({5-[(E)-2-(2-furyl)vinyl]-3-methylisoxazol-4-yl}sulfonyl)piperidin-4-yl]carbonyl}-1,2,3,4-tetrahydroisoquinoline]: 5.35 µM. On the same count and under the same terms, then `COc1cc(OC)c(C2=NOC(C(=O)N3CCc4ccccc4C3)C2)cc1Cl` (stereo unspecified) [2-{[3-(5-chloro-2,4-dimethoxyphenyl)-4,5-dihydro-5-isoxazolyl]carbonyl}-1,2,3,4-tetrahydroisoquinoline], with 8.15 µM; and `O=C(C1CCN(S(=O)(=O)c2cccs2)CC1)N1CCc2ccccc2C1` [3,4-dihydro-1H-isoquinolin-2-yl-(1-thiophen-2-ylsulfonyl-4-piperidinyl)methanone], with 4.18 µM; and `O=C(C1CCN(c2nnc(-n3cccc3)s2)CC1)N1CCc2ccccc2C1` [3,4-dihydro-1H-isoquinolin-2-yl-[1-(5-pyrrol-1-yl-1,3,4-thiadiazol-2-yl)-4-piperidyl]methanone], with 10.6 µM. On the same count and under the same terms, the same measure for `Cc1cc(C(=O)COC(=O)CCc2nc3ccccc3s2)c(C)n1C` [3-(1,3-benzothiazol-2-yl)propanoic acid [2-oxo-2-(1,2,5-trimethyl-3-pyrrolyl)ethyl] ester]: 16 µM; for `Cc1ccccc1OCC(=O)NNC(=O)CCN1C(=O)c2ccccc2C1=O` [3-(1,3-dioxo-2-isoindolyl)-N'-[2-(2-methylphenoxy)-1-oxoethyl]propanehydrazide]: 14.8 µM. Regarding `Cc1ccc(/C=C2\SC(=S)N(c3c(C)n(C)n(-c4ccccc4)c3=O)C2=O)cc1` [3-(1,5-dimethyl-3-oxo-2-phenyl-2,3-dihydro-1H-pyrazol-4-yl)-5-(4-methylbenzylidene)-2-thioxo-1,3-thiazolidin-4-one], the EC50 stood at 1.18 µM. On the same count and under the same terms, the same measure for `Cc1onc(-c2ccccc2Cl)c1C(=O)NC(=S)Nc1ccc(C(C)C)cc1` [3-(2-chlorophenyl)-5-methyl-N-(p-cumenylthiocarbamoyl)isoxazole-4-carboxamide]: 0.291 µM. Still for that read-out and setting: then `O=C(NCCCCc1ccccc1)C1CC(c2ccccc2[N+](=O)[O-])=NO1` (stereo unspecified) [3-(2-nitrophenyl)-N-(4-phenylbutyl)-2-isoxazoline-5-carboxamide], with 8.63 µM. Same read-out and setting: then `O=C(CCSCCc1ccccn1)Nc1ccc(Cc2ccncc2)cc1` [3-(2-pyridin-2-ylethylsulfanyl)-N-[4-(pyridin-4-ylmethyl)phenyl]propanamide], with 8.25 µM; and `O=S1(=O)N=C(N2CCN(Cc3ccccc3)CC2)c2ccccc21` [3-(4-Benzyl-piperazin-1-yl)-benzo[d]isothiazole 1,1-dioxide], with 3.19 µM; and `O=C(Cn1c(-c2ccc(Cl)cc2)noc1=O)N1CCN(c2ccccc2F)CC1` [3-(4-Chloro-phenyl)-4-{2-[4-(2-fluoro-phenyl)-piperazin-1-yl]-2-oxo-ethyl}-4H-[1,2,4]oxadiazol-5-one], with 6.07 µM. Turning to `CCN(CC)c1ccc2c(C)c(-c3ccc(N)cc3)c(=O)oc2c1` [3-(4-aminophenyl)-7-(diethylamino)-4-methyl-1-benzopyran-2-one], the EC50 was determined as 1.08 µM.

`CCOc1ccc(C(CC(=O)O)NC(=O)C(Sc2ccccc2)c2ccccc2)cc1` (stereo unspecified) [3-(4-ethoxyphenyl)-3-[(2-phenyl-2-phenylsulfanyl-ethanoyl)amino]propanoic acid] yielded an EC50 of 13.6 µM. On the same count and under the same terms, then `CS/C(=N\Cc1ccc(F)cc1)NS(=O)(=O)c1cccs1` [3-(4-fluorobenzyl)-2-methyl-1-(2-thienylsulfonyl)isothiourea], with 0.89 µM; and `O=C(Cn1cnc2c(nnn2Cc2ccc(F)cc2)c1=O)N1CCN(c2ccccc2)CC1` [3-(4-fluorobenzyl)-6-[2-keto-2-(4-phenylpiperazino)ethyl]triazolo[4,5-d]pyrimidin-7-one], with 8.12 µM. On the same count and under the same terms, then `Cc1ccc(OCCC(=O)OCC(=O)N2c3ccccc3CC2C)cc1` (stereo unspecified) [3-(4-methylphenoxy)propanoic acid [2-(2-methyl-2,3-dihydroindol-1-yl)-2-oxoethyl] ester], with 4.4 µM.

Staying with this assay, now noted: inactive by the depositor's call.
As for `CN(C)S(=O)(=O)N(CC(=O)NCCSCc1ccccc1)c1ccccc1` [2-[N-(dimethylsulfamoyl)anilino]-N-[2-(phenylmethylthio)ethyl]acetamide], the response was half-maximal at 18.7 µM (EC50). Same read-out and setting: the same measure for `O=C(NCCSCc1ccccc1)c1cc(S(=O)(=O)N2CCOCC2)ccc1F` [2-fluoranyl-5-morpholin-4-ylsulfonyl-N-[2-(phenylmethylsulfanyl)ethyl]benzamide]: 24.7 µM; for `Cc1ccc(C=Nn2c(-c3ccc(Cl)cc3)n[nH]c2=S)s1` [3-(4-chlorophenyl)-4-[(5-methyl-2-thiophenyl)methylideneamino]-1H-1,2,4-triazole-5-thione]: 188 µM.
